Reference: patent US20040235761A1, “Novel virus proliferaton inhibition/virucidal method and novel pyradine nucleotide/pyradine nucleoside analogue” (priority 2001, published 2004)
Read-outs that look alike come from different tables or passages of the source.

Key:
[1] = target: human RNA polymerase (Hela cell nucleus extract) (Homo sapiens, UniProt P24928+P30876); assay: Human RNA polymerase inhibition test; type: biochemical; settings: 30° C., 1 hour, read-out: 50% inhibition concentration
Procedure: A Hela cell nucleus extract (Promega) was used as human RNA polymerase for the test. The pCMP script was cleaved with restriction enzymes and then purified, and it was used as a DNA template for the test.
Each of the test compounds with different concentrations was added to a reaction buffer (Hela cell nucleus extract, 3 mM MgCl2, 0.4 mM each of ATP, UTP and CTP, 0.016 mM GTP, 16 μg/mL DNA template, 0.4 mCi/mL [α-^32P]GTP), followed by incubation at 30° C. for 1 hour. After completion of the reaction, the reaction solution was dropped on a DE81 filter, and the filter was then washed with 5% Na2HPO4 solution 3 times for 30 minutes, and then with distilled water once for 1 minute. The filter was dried, and scintillation cocktail was added thereto. The radioactivity was determined using a liquid scintillation counter. The measurement value was given as a 50% inhibition concentration, providing that a group in which no test compounds were added was defined as 100%.

[2] = target: T1, Influenza virus polymerase (crude enzyme from virus particles) (Influenza A virus, UniProt P03431); assay: Polymerase inhibition test (influenza virus); type: biochemical; settings: 30° C., 60 minutes, 32P-GTP incorporation, read-out: 50% inhibition concentration
T1 construct: these particles were used as polymerase crude enzymes; from tissue; host or cells: influenza virus particles lysed with Triton N101/LPC (crude enzyme)
Procedure: Influenza virus particles were treated with a dissolving solution (100 mM Tris-HCl (pH 8), 100 mM KCl, 5 mM MgCl2, 1.5 mM DTT, 5% glycerol, 1.5% Triton N101, 1% LPC), and these particles were used as polymerase crude enzymes. Each of the test compounds with different concentrations was added to a reaction buffer (100 mM Tris-HCl (pH 8.0), 100 mM KCl, 5 mM MgCl2, 1 mM DTT, 0.25% Triton N101, 0.25 mM ApG, 0.1 mM ATP, 0.05 mM CTP, 0.05 mM UTP, 0.0005 mM GTP, ^32P-GTP, crude enzyme), followed by incubation at 30° C. for 60 minutes. Thereafter, 10% trichloroacetic acid (TCA) was added thereto, and the mixture was retained on ice for 60 minutes. Thereafter, it was dropped on a GF/C filter, and the filter was then washed with 5% TCA. The filter was dried, and scintillation cocktail was added thereto. The radioactivity was determined using a liquid scintillation counter. The measurement value was given as a 50% inhibition concentration, providing that a group in which no test compounds were added was defined as 100%.

[3] = target: T2, HCV polymerase (NS5B region of hepatitis C virus) (Hepatitis C virus genotype 1a, UniProt P27958); assay: Polymerase inhibition test (hepatitis C virus); type: biochemical
T2 construct: The NS5B region of hepatitis C virus was produced in Escherichia coli; made in house; host or cells: Escherichia coli
Procedure: The NS5B region of hepatitis C virus was produced in Escherichia coli, and it was used as HCV polymerase for the test. The sequence of the 3′-region of HCV was prepared by the in vitro transcription method, and it was used as an RNA template for the test.
Each of the test compounds with different concentrations was added to a reaction buffer (20 mM Tris-HCl (pH 8.0), 0.05 mM MnCl2, 1 mM DTT, 20 units RNase inhibitor, [α-^32P]GTP, 0.05 mM each of ATP, CTP and UTP, and 2 μg/mL RNA template), followed by incubation at 30° C. for 2 hours. Thereafter, 10% TCA was added to terminate the reaction. Thereafter, the reaction solution was dropped on a DE81 filter, and the filter was then washed with 5% TCA. The filter was dried, and scintillation cocktail was added thereto. The radioactivity was determined using a liquid scintillation counter. The measurement value was given as a 50% inhibition concentration, providing that a group in which no test compounds were added was defined as 100%.

[4] = target: Inosine monophosphate dehydrogenase (IMPDH); assay: Inosine monophosphate dehydrogenase (IMPDH) inhibition test; type: biochemical; settings: IMPDH enzyme solution from MDCK cell homogenate, 37° C., 1 hour; read-out: 50% inhibition concentration
Procedure: MDCK cells monolayer-cultured on a culture plate were suspended in 0.05 M Tris-HCl (pH 8.0), and the suspension was homogenated with a Downs homogenizer to obtain a cell homogenate. The cell homogenate was centrifuged at 16000×g, and the thus obtained supernatant was used as an IMPDH enzyme solution.
As reaction compositions, 0.1 M Tris-HCl (pH 8.0), 0.1 M KCl, 30 mM EDTA, 5 mM NAD, 5 mg/mL bovine serum albumin, and 0.04 mM [8-^14C]-inosine 5′-monophosphate were used. After completion of reaction at 37° C. for 1 hour, 2 volumes of acetonitrile were added to terminate the reaction, and the reaction product was concentrated. The obtained concentrate was analyzed under the HPLC conditions indicated below. The ratio between the reaction substrate ([^14C]-inosine 5′-monophosphate) and the reaction product ([^14C]-xanthosine 5′-monophosphate) was obtained, and the reaction rate was calculated. Ribavirin monophosphate was used as a control compound.

[5] = system: bovine diarrhea virus (BVDV) NADL; assay: Anti-BVDV effect (plaque inhibition in MDBK cells); type: cell-based; settings: Bovine viral diarrhea virus isolates and strains, 72 h, 100 μg/mL test compound, 70 PFU/well, 3 days, read-out: Inhibition rate (plaque inhibition rate)
Procedure: MDBK cells that had fully grown in a 6-well culture plate were infected with bovine diarrhea virus (BVDV) NADL at 70 PFU/well. After 60 minutes, the infection solution was removed, and a test culture solution (E′-MEM) containing 5% horse serum and 1% agar (SeaPlaque Agar) that contained a 100 μg/mL test compound was added thereto. The mixture was fully solidified and then cultured for 3 days under conditions of 37° C., a humidity of 100% and 5% CO2. After completion of the culture, the test plate was fixed with a 3% formaldehyde solution, and the agar medium was removed with running water, followed by staining with a 1% crystal violet solution, so as to count the number of plaques. The plaque inhibition rate was expressed by the percentage obtained by comparing with a control to which no test compounds were added.

[6] = system: influenza virus A/PR/8/34; assay: Anti-influenza effect (plaque inhibition in MDCK cells); type: cell-based; settings: PR/8, MDCK, 72 h, read-out: Inhibition rate (plaque inhibition rate)
[7] = NS5B produced in Escherichia coli, 30° C., 2 hours, read-out: 50% inhibition concentration

NC(=O)c1nccn([C@@H]2O[C@H](COP(=O)(O)OP(=O)(O)OP(=O)(O)O)[C@@H](O)[C@H]2O)c1=O [Reference Example 22, {(2R,3S,4R,5R)-5-[3-(aminocarbonyl)-2-oxo-1(2H)-pyrazinyl]-3,4-dihydroxytetrahydro-2-furanyl} methyl triphosphate]
IC50 [1]: > 200000 nM
IC50 [2]: 76 nM
IC50 [3, 7]: 88 nM

Cc1cn([C@@H]2O[C@H](COP(=O)(O)OP(=O)(O)OP(=O)(O)O)[C@@H](O)[C@H]2O)c(=O)c(C(N)=O)n1 [Reference Example 23, {(2R,3S,4R,5R)-5-[3-(aminocarbonyl)-5-methyl-2-oxo-1(2H)-pyrazinyl]-3,4-dihydroxytetrahydro-2-furanyl}methyl triphosphate]
IC50 [2]: 250 nM
IC50 [3]: 2200 nM

NC(=O)c1ncn([C@@H]2O[C@H](COP(=O)(O)O)[C@@H](O)[C@H]2O)n1 [Control compound, Ribavirin monophosphate, reference compound]
IC50 [4]: 1900 nM

NC(=O)c1nccn([C@@H]2O[C@H](COP(=O)(O)OP(=O)(O)OP(=O)(O)O)C[C@H]2O)c1=O [Reference Example 25, {(2S,4R,5R)-5-[3-(aminocarbonyl)-2-oxo-1(2H)-pyrazinyl]-4-hydroxytetrahydro-2-furanyl} methyl triphosphate]
IC50 [1]: > 200000 nM
IC50 [2]: 28000 nM
IC50 [3, 7]: 1600 nM

CC(C)(C)C(=O)OCOP(=O)(OCOC(=O)C(C)(C)C)OC[C@H]1O[C@@H](n2ccnc(C(N)=O)c2=O)[C@H](O)[C@@H]1O [Example 6, 2,2-dimethyl-propionic acid[(2R,3S,4R,5R)-5-(3-carbamoyl-2-oxo-2H-pyrazine-1-yl)-3,4-dihydroxy-tetrahydro-furan-2-ylmethoxy]-(2,2-dimethyl-propionyloxymethoxy)-phosphoryloxymethyl ester]
inhibition at 100 µg/mL [5]: 57%
inhibition at 100 µg/mL [6]: 100%

NC(=O)c1nc(F)cn([C@@H]2O[C@H](COP(=O)(O)O)[C@@H](O)[C@H]2O)c1=O [Example 37, [(2R,3S,4R,5R)-5-[3-(aminocarbonyl)-5-fluoro-2-oxo-1(2H)-pyrazinyl]-3,4-dihydroxytetrahydro-2-furanyl]methyl phosphate]
IC50 [4]: 740000 nM

NC(=O)c1nc(Cl)cn([C@@H]2O[C@H](COP(=O)(O)OP(=O)(O)OP(=O)(O)O)[C@@H](O)[C@H]2O)c1=O [Reference Example 17, {(2R,3S,4R,5R)-5-[3-(aminocarbonyl)-5-chloro-2-oxo-1(2H)-pyrazinyl]-3,4-dihydroxytetrahydro-2-furanyl}methyl triphosphate]
IC50 [2]: 330 nM
IC50 [3, 7]: 2700 nM

CC(=O)OC[C@H]1O[C@@H](n2cc(F)nc(C(N)=O)c2=O)[C@H](OC(C)=O)[C@@H]1OC(C)=O [Example 31, (2R,3R,4R, 5R)-4-(acetyloxy)-2-[(acetyloxy)methyl]-5-[3-(aminocarbonyl)-5-fluoro-2-oxo-1(2H)-pyrazinyl] tetrahydro-3-furanyl acetate]
inhibition at 100 µg/mL [6]: 44%

NC(=O)c1nccn([C@@H]2O[C@H](COP(=O)(O)O)[C@@H](O)[C@H]2O)c1=O [Reference Example 30, {(2R,3S,4R,5R)-5-[3-(aminocarbonyl)-2-oxo-1(2H)-pyrazinyl]-3,4-dihydroxytetrahydro-2-furanyl}methyl phosphate]
IC50 [4]: 980000 nM

CC(C)(C)C(=O)SCCOP(=O)(OCCSC(=O)C(C)(C)C)OC[C@H]1O[C@@H](n2cc(Cl)nc(C(N)=O)c2=O)[C@H](O)[C@@H]1O [Example 4, 2,2-dimethyl-thiopropionic acid S-(2-{[(2R,3S,4R,5R)-5-(3-carbamoyl-5-chloro-2-oxo-2H-pyrazine-1-yl)-3,4-dihydroxy-tetrahydro-furan-2-ylmethoxy]-[2-(2,2-dimethyl-propionylsulfanyl)-ethoxy]-phosphoryloxy]-ethyl) ester]
inhibition at 100 µg/mL [5]: 68%

NC(=O)c1nc(F)cn([C@@H]2O[C@H](CO)[C@@H](O)[C@H]2O)c1=O [Example 32, 4-[(2R,3R,4S,5R)-3,4-dihydroxy-5-(hydroxymethyl)tetrahydro-2-furanyl]-6-fluoro-3-oxo-3,4-dihydro-2-pyrazinecarboxamide]
inhibition at 100 µg/mL [5]: 100%
inhibition at 100 µg/mL [6]: 100%

Cc1cn([C@@H]2O[C@H](CO)[C@@H](O)[C@H]2O)c(=O)c(C(N)=O)n1 [Example 11, 4-[(2R,3R,4S,5R)-3,4-dihydroxy-5-(hydroxymethyl)tetrahydro-2-furanyl]-6-methyl-3-oxo-3,4-dihydro-2-pyrazinecarboxamide]
inhibition at 100 µg/mL [6]: 24%

NC(=O)c1nc(F)cn([C@@H]2O[C@H](COP(=O)(O)OP(=O)(O)OP(=O)(O)O)[C@@H](O)[C@H]2O)c1=O [Reference Example 16, [[2R,3S,4R,5R]-5-[3-(aminocarbonyl)-5-fluoro-2-oxo-1(2H)-pyrazinyl]-3,4-dihydroxytetrahydro-2-furanyl]methyl triphosphate]
IC50 [2]: 140 nM
IC50 [3, 7]: 750 nM

CC(=O)OC[C@H]1O[C@@H](n2ccnc(C(N)=O)c2=O)[C@H](OC(C)=O)[C@@H]1OC(C)=O [Example 22, (2R,3R,4R,5R)-4-(acetyloxy)-2-[(acetyloxy)methyl]-5-[3-(aminocarbonyl)-2-oxo-1(2H)-pyrazinyl]tetrahydro-3-furanyl acetate]
inhibition at 100 µg/mL [6]: 33%

NC(=O)c1nc(Cl)cn([C@@H]2O[C@H](CO)[C@@H](O)[C@H]2O)c1=O [Reference Example 7, 6-chloro-4-[(2R,3R,4S,5R)-3,4-dihydroxy-5-(hydroxymethyl)tetrahydro-2-furanyl]-3-oxo-3,4-dihydro-2-pyrazinecarboxamide]
inhibition at 100 µg/mL [6]: 42%

CC(=O)O[C@@H]1[C@H](OC(C)=O)[C@@H](CO)O[C@H]1n1cc(F)nc(C(N)=O)c1=O [Reference Example 12, (2R,3R,4R,5R)-4-(acetyloxy)-2-[3-(aminocarbonyl)-5-fluoro-2-oxo-1(2H)-pyrazinyl]-5-(hydroxymethyl)tetrahydro-3-furanyl acetate]
inhibition at 100 µg/mL [6]: 78%
